Measurements from patent publication US5817755A, “Synthetic peptide analogs of cross-linked N-telopeptides of type I collagen” (Washington Research Foundation, priority 1997, dated 1998).
Non-standard residues stand in square brackets, D forms with d. Residues, ends and D or L forms follow the SMILES beside them. pGlu = O=C1CC[C@@H](C(=O)O)N1; Nva = CCC[C@H](N)C(=O)O

How the values were obtained:
mAb 1H11 [1] = settings: linear peptides in which K is simply lysine; WO 91/08478; Hanson et al. 1992; cited from earlier work
mAb 1H11 [2] = assay: OSTEOMARK competitive immunoassay testing apparent affinity of synthetic peptides for mAb 1H11; assay type: binding; settings: for Results: peptide binding to mAb 1H11, 1 μg synthetic peptide = X nmole BCE: nanomoles Bone Collagen Equivalents equivalent to 1 μg peptide, back fit into OSTEOMARK standard curve, values between 0.5 and 1 OD averaged; for binding to mAb 1H11 (in words): synthetic peptide, antibody inhibition assay
Excerpt: Generally, a milligram per mL solution of the peptide was made in PBS. The absorbence at A280 was read and the concentration confirmed. Dilutions of the peptide were then made in a buffer such as OSTEOMARK (TM) calibrator diluent (OSTEOMARK Assay, Ostex International, Seattle, Wash.). Working strength concentrations were between 10 and 0.01 micrograms per milliliter.
To test the apparent affinity of the synthetic peptides for mAb 1H11, the OSTEOMARK assay was run using OSTEOMARK kits and components, including monoclonal antibody 1H11. A standard curve was run using OSTEOMARK calibrators. Peptide samples were generally tested at 10, 3, 1, and down to 0.01 μG per mL. The standard OSTEOMARK curve was generated using a four parameter logistic curve fit program (MedData Inc., N.Y., N.Y.). Peptide values were back fit into the standard curve and values were reported in picomoles Bone Collagen Equivalents (BCE)/mL (which equals nanomolar BCE, or nM BCE).
Values in the Table are reported as the number of nanomoles of BCE equivalent to a microgram of a given peptide. Antibody binding values below 500 nMole BCE were considered to be commercially insignificant.

CC(C)[C@H](NC(=O)CNC(=O)[C@H](CCCCN)NC(=O)CNC(=O)[C@H](CC(=O)O)NC(=O)[C@H](Cc1ccc(O)cc1)NC(=O)[C@@H]1CCC(=O)N1)C(=O)NCC(=O)O [SEQ ID NO:9, J Y D G K G V G] ([pGlu]YDGKGVG-OH)
recognition by mAb 1H11 (in words) (mAb 1H11 [1]): recognized very weakly | Results: peptide binding to mAb 1H11, 1 μg synthetic peptide = X nmole BCE (mAb 1H11 [2]): 100 nmole BCE | binding to mAb 1H11 (in words) (mAb 1H11 [2]): very weak binding partner

CC(C)C[C@H](NC(=O)CNC(=O)[C@H](CC(=O)O)NC(=O)[C@H](Cc1ccc(O)cc1)NC(=O)[C@@H]1CCC(=O)N1)C(=O)NCC(=O)N[C@H](C(=O)NCC(=O)O)C(C)C [SEQ ID NO:10, J Y D G L G V G] ([pGlu]YDGLGVG-OH)
Results: peptide binding to mAb 1H11, 1 μg synthetic peptide = X nmole BCE (mAb 1H11 [2]): 230 nmole BCE

CCC[C@H](NC(=O)CNC(=O)[C@H](CC(=O)O)NC(=O)[C@H](Cc1ccc(O)cc1)NC(=O)[C@@H]1CCC(=O)N1)C(=O)NCC(=O)N[C@H](C(=O)NCC(=O)O)C(C)C [SEQ ID NO:38, J Y D G X^5 G V G] ([pGlu]YDG[Nva]GVG-OH)
Results: peptide binding to mAb 1H11, 1 μg synthetic peptide = X nmole BCE (mAb 1H11 [2]): 860 nmole BCE

CC(C)[C@H](NC(=O)CNC(=O)[C@H](Cc1c[nH]c2ccccc12)NC(=O)CNC(=O)[C@H](CC(=O)O)NC(=O)[C@H](Cc1ccc(O)cc1)NC(=O)[C@@H]1CCC(=O)N1)C(=O)NCC(=O)O [SEQ ID NO:19, J Y D G W G V G] ([pGlu]YDGWGVG-OH)
Results: peptide binding to mAb 1H11, 1 μg synthetic peptide = X nmole BCE (mAb 1H11 [2]): 1300 nmole BCE

CC(C)[C@H](NC(=O)CNC(=O)[C@H](CC(=O)O)NC(=O)CNC(=O)[C@H](CC(=O)O)NC(=O)[C@H](Cc1ccc(O)cc1)NC(=O)[C@@H]1CCC(=O)N1)C(=O)NCC(=O)O [SEQ ID NO:31, J Y D G D G V G] ([pGlu]YDGDGVG-OH)
Results: peptide binding to mAb 1H11, 1 μg synthetic peptide = X nmole BCE (mAb 1H11 [2]; listed as 31): 1400 nmole BCE

CC(C)[C@H](NC(=O)CNC(=O)[C@H](CCC(=O)O)NC(=O)CNC(=O)[C@H](CC(=O)O)NC(=O)[C@H](Cc1ccccc1)NC(=O)[C@@H]1CCC(=O)N1)C(=O)NCC(=O)O [SEQ ID NO:36, J F D G E G V G] ([pGlu]FDGEGVG-OH)
Results: peptide binding to mAb 1H11, 1 μg synthetic peptide = X nmole BCE (mAb 1H11 [2]): 14 nmole BCE | binding to mAb 1H11 (in words) (mAb 1H11 [2]): blocks mAb 1H11 binding

CC(C)[C@H](NC(=O)CNC(=O)[C@H](C)NC(=O)CNC(=O)[C@H](CC(=O)O)NC(=O)[C@H](Cc1ccc(O)cc1)NC(=O)[C@@H]1CCC(=O)N1)C(=O)NCC(=O)O [SEQ ID NO:1, J Y D G A G V G] ([pGlu]YDGAGVG-OH)
Results: peptide binding to mAb 1H11, 1 μg synthetic peptide = X nmole BCE (mAb 1H11 [2]): 483 nmole BCE

CC(C)[C@H](NC(=O)CNC(=O)[C@H](CC(=O)O)NC(=O)CNC(=O)[C@H](CC(=O)O)NC(=O)[C@H](Cc1ccc(O)cc1)NC(=O)[C@@H]1CCC(=O)N1)C(=O)NCC(=O)O [SEQ ID NO:3, J Y D G D G V G] ([pGlu]YDGDGVG-OH)
Results: peptide binding to mAb 1H11, 1 μg synthetic peptide = X nmole BCE (mAb 1H11 [2]; listed as 3): 1840 nmole BCE
